# Data reported in patent US20190343780A1, “LOW DOSE DRUG COMBINATIONS FOR USE IN PREVENTING AND TREATING NEURONAL DAMAGE” (priority 2016, published 2019).
# Read-outs that look alike come from different tables or passages of the source.
# Assays:
# [1] = test system: rats with hemic hypoxia (sodium nitrite); experiment: Hemic hypoxia in rats (sodium nitrite 80 mg/kg), oral treatment; format: in vivo, rat; details: 40 minutes before sodium nitrite
# Description: Table 5 summarizes the anti-hypoxic and neuroprotective effects of such treatments.
# Rats were treated as in Example 5. Table 6 summarizes the neuroprotective effect of such treatments.
# [2] = intravenous injection during the first 12 hours after stroke, cited from earlier work
# [3] = test system: rats with focal cerebral ischemia; details: cited from earlier work
# [4] = test system: mice with asphyctic hypoxia; experiment: Asphyctic hypoxia in mice (sealed 100 cm^3 glass chamber), treatment I.P.; format: in vivo; details: for ED50: Mus musculus, ip, Dose increasing the life of mice by 50%, combination: memantine dose, read-out: Asphyctic hypoxia (ED50), mg/kg, I.P. admin.
# Description: (§1) Rats were intra-muscularly (I.M.) administered with 80 mg/kg sodium nitrite to achieve hemic hypoxia (Serdiuk et al., Eksp. Klin. Farmakol., 2000, Vol. 63(6), pages 3-8). Mice were caged in a 100 cm^3 sealed glass chamber to achieve asphyctic hypoxia, which simulates cerebral ischemia (Serdiuk et al., Eksp. Klin. Farmakol., 2000, Vol. 63(6), pages 3-8; Khalili et al., Eur. Rev. Med. Pharmacol. Sci., 2015, Vol. 19(17), pages 3282-3285).
# (§2) Rats and mice were treated as in Example 1.
# [5] = test system: rats with chronic kainate degeneration of the brain (AMPA/kainate receptors); experiment: Chronic kainate degeneration in rats (kainic acid 12 mg/kg), oral treatment; format: in vivo, rat; details: for Chronic kainate lethality in rats, % per group: 2 weeks after kainate; for Rats with heavy neurological diseases (%): score 3 to 5 points; for ED50: Rattus norvegicus
# Description: Rats were either orally administered with 80 mg/kg sodium nitrite to achieve hemic hypoxia, as explained In Example 1, or with 12 mg/kg Kainic acid to achieve chronic kainate degeneration of the brain by stimulation of AMPA/kainate receptors.
# [6] = test system: mice, toxic stimulation of NMDA receptors of brain
# Description: Mice were I.P. administered with 250 mg/kg N-Methyl-D-aspartic acid (NMDA), a neurotoxin causing clonic-tonic seizure and death in 100% of animals by toxic stimulating of NMDA receptors of brain (Leander et al., Brain Res., 1988, Vol. 448 (1), pages 115-120). Rats were I.M. administered with 12 mg/kg Kainic acid to achieve chronic kainate degeneration of the brain by stimulation of AMPA/kainate receptors (Serdyuk et al., Bull. Exp. Biol. Med., 2014, Vol. 157(1), pages 15-17). Chronic kainate degeneration leads to chronic kainate lethality, neurologic disturbances and large weight loss (Serdyuk et al., Bull. Exp. Biol. Med., 2014, Vol. 157(1), pages 15-17).
# Animals were then treated with deionized water (control), memantine, epinephrine or combinations of memantine and epinephrine, which were I.P. or I.M administered, as indicated.
# Rats were treated as in Example 3.
# [7] = cited from earlier work
# [8] = test system: rats with hemic hypoxia (sodium nitrite); experiment: Hemic hypoxia in rats (sodium nitrite 80 mg/kg I.M.), treatment I.M.; format: in vivo, rat; details: for ED50: Rattus norvegicus, im; for ED50 / Dose with significant anti-hypoxic effect: combination: memantine dose; for Dose with significant anti-hypoxic effect: text summary of Table 1 (hemic and asphyctic hypoxia)
# Description: as §1, §2
# [9] = test system: rats with chronic kainate degeneration of the brain (AMPA/kainate receptors); experiment: Chronic kainate degeneration in rats (kainic acid 12 mg/kg I.M.), treatment I.M.; format: in vivo, rat; details: for Chronic Kainate lethality in rats (%) / Rats with heavy neurologic disturbances (%) / Rats with large weight loss (%): I.M.; for Chronic Kainate lethality in rats (%): 2 weeks after kainate; for Rats with heavy neurologic disturbances (%): score 3 to 5 points; for Dose with significant neuroprotective effect: text summary of Table 3 (NMDA lethality and kainate degeneration)
# Description: Table 3 summarizes the neuroprotective effect of such treatments.
# Rats were treated as in Example 3. Table 4 summarizes the neuroprotective effect of such treatments.
# [10] = Dose 5 mg/kg (combination: memantine dose)
# [11] = Dose 10 mg/kg (combination: memantine dose)
# [12] = Dose increasing the life of rats by 50%, read-out: Hemic hypoxia (ED50), mg/kg, I.M. admin.
# [13] = text summary of Table 2, span over hemic and asphyctic hypoxia, read-out: ED50, anti-hypoxic effect
structure (smiles),measurement,setting,value
"CNC[C@H](O)c1cccc(O)c1 [Phenylephrine, phenylephrine]","Hemic hypoxia, life of rats (min), Oral admin.",[1]; Dose 0.02 mg/kg,60 ± 7 min
same,"Hemic hypoxia, life of rats (min), Oral admin.",[1]; Dose 0.05 mg/kg,62 ± 9 min
same,"Hemic hypoxia, life of rats (min), Oral admin.",[1]; Dose 0.1 mg/kg,67 ± 10 min
same,"Hemic hypoxia, life of rats (min), Oral admin.",[1]; Dose 0.5 mg/kg,77 ± 12 min
same,"Hemic hypoxia, life of rats (min), Oral admin.",[1]; Dose 1.0 mg/kg (combination: memantine dose),88 ± 14 ^1 min
same,Cerebral blood flow,[2],significant improvement in cerebral blood flow
same,Blood pressure after induced hypertension,[2]; from 100-110 mm,160-170 mm
same,Effect on infarction and neurological damage,[3]; intravenous administration before ligation of the middle cerebral artery,prevented infarction development and reduced neurological damage
"CC12CC3CC(C)(C1)CC(N)(C3)C2 [Memantine, memantine]","Hemic hypoxia, life of rats (min), Oral admin.",[1]; [10],62 ± 7 min
same,"Hemic hypoxia, life of rats (min), Oral admin.",[1]; [11],65 ± 9 min
same,"Hemic hypoxia, life of rats (min), Oral admin.",[1]; Dose 20 mg/kg,73 ± 11 min
same,"Asphyctic hypoxia, mice life duration (sec), I.P. admin.",[4]; [10],850 ± 80 s
same,"Asphyctic hypoxia, mice life duration (sec), I.P. admin.",[4]; [11],936 ± 93 s
same,"Asphyctic hypoxia, mice life duration (sec), I.P. admin.",[4]; Dose 20 mg/kg,1070 ± 114 ^1 sec
same,ED50,[4],19.9 ± 2.8 mg/kg
same,"Chronic kainate lethality in rats, % per group","[5]; Dose 5 mg/kg (combination: memantine dose), oral",90%
same,Rats with heavy neurological diseases (%),"[5]; Dose 5 mg/kg (combination: memantine dose), oral, 7-14 days after kainate",90%
same,Rats with large weight loss (%),"[5]; Dose 5 mg/kg (combination: memantine dose), oral, underweight more than 30%, 7-14 days after kainate",90%
same,"Chronic kainate lethality in rats, % per group","[5]; Dose 10 mg/kg (combination: memantine dose), oral",80%
same,Rats with heavy neurological diseases (%),"[5]; Dose 10 mg/kg (combination: memantine dose), oral, 7-14 days after kainate",80%
same,Rats with large weight loss (%),"[5]; Dose 10 mg/kg (combination: memantine dose), oral, underweight more than 30%, 7-14 days after kainate",70%
same,"Chronic kainate lethality in rats, % per group","[5]; Dose 20 mg/kg, oral",60% ^3
same,Rats with heavy neurological diseases (%),"[5]; Dose 20 mg/kg, oral, 7-14 days after kainate",70%
same,Rats with large weight loss (%),"[5]; Dose 20 mg/kg, oral, underweight more than 30%, 7-14 days after kainate",60% ^3
same,ED50,"[5]; read-out: Dose decreasing the number of rats with large weight loss by 50% (ED50), mg/kg, Oral admin., underweight more than 30%, 7-14 days after kainate, combination: memantine dose",18.8 ± 2.4 mg/kg
same,ED50,"[5]; text summary of Table 6, span over hemic hypoxia and kainate endpoints, oral, combination: memantine dose, read-out: ED50, anti-hypoxic and neuroprotective effects",18 to 20 mg/kg
same,Dose with significant neuroprotective effects,"[5]; text summary of Table 5, oral, combination: memantine dose",20 mg/kg
same,"Acute NMDA lethality in mice (%), I.P. admin.",[6]; [10],100 ^ %
same,"Acute NMDA lethality in mice (%), I.P. admin.",[6]; [11],60 ^ %
same,"Acute NMDA lethality in mice (%), I.P. admin.",[6]; Dose 20 mg/kg,16 ^1%
same,Neurological and cognitive function of stroke patients,"[7]; 20 mg for 6 months, subacute and recovery phase of stroke",significantly improved neurological and cognitive function
same,Side effects of prolonged use at a high dose,"[7]; prolonged use, high dose","development of agitation, insomnia, irritability, and psychosis"
same,Effect on brain injury and neurological disorders,"[3]; prophylactic administration, 20 mg/kg",prevented injury of the brain and reduced neurological disorders
same,"Hemic hypoxia, rat life duration (min), I.M. admin.",[8]; [10],63 ± 5 ^ min
same,"Hemic hypoxia, rat life duration (min), I.M. admin.",[8]; [11],77 ± 8 ^ min
same,"Hemic hypoxia, rat life duration (min), I.M. admin.",[8]; Dose 20 mg/kg,86 ± 9 ^1 min
same,ED50,[8]; [12],18.2 ± 2.3 mg/kg
same,ED50,[8]; [13],18 to 20 mg/kg
same,Dose with significant anti-hypoxic effect,[8],20 mg/kg
same,Chronic Kainate lethality in rats (%),[9]; [10],90%
same,Rats with heavy neurologic disturbances (%),"[9]; Dose 5 mg/kg (combination: memantine dose), 7-14 days after kainate",90 ^ %
same,Rats with large weight loss (%),"[9]; Dose 5 mg/kg (combination: memantine dose), underweight more than 30%, 7-14 days after kainate",90 ^ %
same,Chronic Kainate lethality in rats (%),[9]; [11],70%
same,Rats with heavy neurologic disturbances (%),"[9]; Dose 10 mg/kg (combination: memantine dose), 7-14 days after kainate",80 ^ %
same,Rats with large weight loss (%),"[9]; Dose 10 mg/kg (combination: memantine dose), underweight more than 30%, 7-14 days after kainate",70 ^ %
same,Chronic Kainate lethality in rats (%),[9]; Dose 20 mg/kg,40 ^1%
same,Rats with heavy neurologic disturbances (%),"[9]; Dose 20 mg/kg, 7-14 days after kainate",50 ^1%
same,Rats with large weight loss (%),"[9]; Dose 20 mg/kg, underweight more than 30%, 7-14 days after kainate",40 ^1%
same,ED50,"[9]; Rattus norvegicus, im, read-out: Dose reducing the number of rats with a large deficit of weight by 50% (ED50), mg/kg, I.M. admin., underweight more than 30%, 7-14 days after kainate, combination: memantine dose",17.6 ± 2.4 mg/kg
same,Dose with significant neuroprotective effect,[9]; combination: memantine dose,20 mg/kg
"CNC[C@H](O)c1ccc(O)c(O)c1 [Epinephrine, epinephrine]","Asphyctic hypoxia, mice life duration (sec), I.P. admin.",[4]; Dose 0.01 mg/kg,711 ± 79 s
same,"Asphyctic hypoxia, mice life duration (sec), I.P. admin.",[4]; Dose 0.02 mg/kg,750 ± 90 s
same,"Asphyctic hypoxia, mice life duration (sec), I.P. admin.",[4]; Dose 0.1 mg/kg,990 ± 123 s
same,"Asphyctic hypoxia, mice life duration (sec), I.P. admin.",[4]; Dose 0.2 mg/kg,1250 ± 155 ^1 sec
same,ED50,[4],0.12 ± 0.02 mg/kg
same,"Acute NMDA lethality in mice (%), I.P. admin.",[6]; Dose 0.01 mg/kg,100 ^ %
same,"Acute NMDA lethality in mice (%), I.P. admin.",[6]; Dose 0.02 mg/kg,100 ^ %
same,"Acute NMDA lethality in mice (%), I.P. admin.",[6]; Dose 0.1 mg/kg,30 ^1%
same,"Acute NMDA lethality in mice (%), I.P. admin.",[6]; Dose 0.2 mg/kg,10 ^2%
same,"Hemic hypoxia, rat life duration (min), I.M. admin.",[8]; Dose 0.01 mg/kg,63 ± 7 ^ min
same,"Hemic hypoxia, rat life duration (min), I.M. admin.",[8]; Dose 0.02 mg/kg,69 ± 8 ^ min
same,"Hemic hypoxia, rat life duration (min), I.M. admin.",[8]; Dose 0.1 mg/kg,113 ± 16 ^2 min
same,"Hemic hypoxia, rat life duration (min), I.M. admin.",[8]; Dose 0.2 mg/kg,122 ± 19 ^2 min
same,ED50,[8]; [12],0.06 ± 0.01 mg/kg
same,ED50,[8]; [13],0.06 to 0.12 mg/kg
same,Dose with significant anti-hypoxic effect,[8],≥ 0.1 mg/kg
same,Chronic Kainate lethality in rats (%),[9]; Dose 0.01 mg/kg,90%
same,Rats with heavy neurologic disturbances (%),"[9]; Dose 0.01 mg/kg, 7-14 days after kainate",100 ^ %
same,Rats with large weight loss (%),"[9]; Dose 0.01 mg/kg, underweight more than 30%, 7-14 days after kainate",100 ^ %
same,Chronic Kainate lethality in rats (%),[9]; Dose 0.02 mg/kg,80%
same,Rats with heavy neurologic disturbances (%),"[9]; Dose 0.02 mg/kg, 7-14 days after kainate",90 ^ %
same,Rats with large weight loss (%),"[9]; Dose 0.02 mg/kg, underweight more than 30%, 7-14 days after kainate",80 ^ %
same,Chronic Kainate lethality in rats (%),[9]; Dose 0.1 mg/kg,20 ^1%
same,Rats with heavy neurologic disturbances (%),"[9]; Dose 0.1 mg/kg, 7-14 days after kainate",30 ^1%
same,Rats with large weight loss (%),"[9]; Dose 0.1 mg/kg, underweight more than 30%, 7-14 days after kainate",20 ^2%
same,Chronic Kainate lethality in rats (%),[9]; Dose 0.2 mg/kg,0 ^2%
same,Rats with heavy neurologic disturbances (%),"[9]; Dose 0.2 mg/kg, 7-14 days after kainate",10 ^2%
same,Rats with large weight loss (%),"[9]; Dose 0.2 mg/kg, underweight more than 30%, 7-14 days after kainate",0 ^2%
same,Dose with significant neuroprotective effect,[9]; combination: memantine dose,≥ 0.1 mg/kg
